Measured values as given in publication doi:10.1101/2024.08.25.609621 (bioRxiv, 2024).
Several values for one entry are separate records, joined by “and”; a condition that tells them apart may be missing. Equal values may be shown once. Read-outs that look alike come from different tables or passages of the source.

Legend:
[1] = target: SARS-CoV-2 NSP3 macrodomain (Mac1), P43 crystal form (Severe acute respiratory syndrome coronavirus 2, UniProt P0DTD1); type: binding; details: for 1-BDC: PanDDA background density correction; for Total number of conformations: ligand conformations modeled in Mac1 crystal structure; for X-ray crystallography: Binding site: site where the ligand is bound in the X-ray crystal structure
[2] = target: SARS-CoV-2 NSP3 macrodomain (Mac1) (Severe acute respiratory syndrome coronavirus 2, UniProt P0DTD1); test: biochemical; type: binding; details: for SARS CoV-2 macrodomain HTRF assay: Hillslope: dose-response fit
[3] = crystal soak 10 mM, P43 crystals
[4] = occupancy estimate from PanDDA 1-BDC
[5] = Single dose, concentration 200 μM, read-out: SARS CoV-2 macrodomain HTRF assay: Average % competition
[6] = preliminary screen, compound at 200 μM, mean of 3-4 technical replicates, read-out: % competition in HTRF assay
[7] = TRUE = crystal structure with ligand determined
[8] = crystal soak concentration 10 mM, event 1
[9] = crystal soak concentration 10 mM, P43 crystals
[10] = crystal soak concentration 10 mM
[11] = site of Mac1 where ligand bound in crystal structure
[12] = Dose-response, SARS CoV-2 macrodomain HTRF assay
[13] = Single dose, 200 μM, mean of three technical replicates, read-out: Average % competition
[14] = crystal soak concentration 20 mM
[15] = crystal soak concentration 20 mM, event 1
[16] = crystal soak concentration 20 mM, P43 crystals
[17] = occupancy estimate from PanDDA BDC
[18] = crystal soak, soak concentration 10 mM
[19] = crystal soak, soak concentration 10 mM, P43 crystals, TRUE = ligand-binding event identified
[20] = crystal soak, soak concentration 10 mM, event 1
[21] = dose-response, read-out: SARS CoV-2 macrodomain HTRF assay: IC50

O[C@H]1CC[C@@H]2CCN(c3ncnc4[nH]ccc34)[C@@H]21 [AVI-3664]
1-BDC [1]: 0.16
Pandda run, overall: Hit [1, 3]: TRUE
Pandda run, overall: Modeled [1, 3]: TRUE
PanDDA run, DMSO background map: 1-BDC ([1]; crystal soak 10 mM): 0.16
PanDDA run, DMSO background map: Hit ([1]; crystal soak 10 mM): TRUE
Total number of conformations [1]: 1
2*(1-BDC) (%) [1, 4]: 32%
X-ray crystallography: Binding site [1]: Adenosine
Hill slope ([2]; HTRF dose-response fit, Mac1): 1.2
inhibition at 200 µM [2, 5]: 93%
SARS CoV-2 macrodomain HTRF assay: Hillslope [2]: 1.2
inhibition at 200 µM [2, 6]: 93%

CC(CNC(=O)c1ccc2c(c1)CCC(=O)N2)C(=O)O (centres unmarked) [AVI-328]
PanDDA run, DMSO background map: 1-BDC ([1]; event 1): 0.25
1-BDC [1]: 0.11
X-ray crystal structure [1, 7]: TRUE
PanDDA run, DMSO background map: 1-BDC [1, 8]: 0.11 and 0.1
Pandda run, overall: Hit [1, 9]: TRUE
Pandda run, overall: Modeled [1, 9]: TRUE
Pandda run, overall: Modeling comment [1, 9]: Duplicate, not modeled
PanDDA run, DMSO background map: Hit [1, 10]: TRUE
PanDDA run, DMSO background map: Modeled [1, 10]: TRUE
Total number of conformations [1]: 2
2*(1-BDC) (%) [1, 4]: 22%
Binding site [1, 11]: Adenosine
Hill slope [2, 12]: 1.3
Hill slope ([2]; HTRF dose-response fit, Mac1): 1.3
inhibition at 200 µM [2, 13]: 50%
inhibition at 200 µM [2, 6]: 50%

O=C1CCc2cc(C(=O)N3CC(C(=O)O)CCC34CCCC4)c(F)cc2N1 (centres unmarked) [AVI-338]
Occupancy difference (refined_occupancy - 2*(1-BDC)) [1]: 0
Refined ligand occupancy (%) [1]: 14%
1-BDC [1]: 0.07
X-ray crystal structure [1, 7]: TRUE
PanDDA run, DMSO background map: Hit [1, 14]: TRUE
PanDDA run, DMSO background map: Modeled [1, 14]: TRUE
PanDDA run, DMSO background map: 1-BDC [1, 15]: 0.07
Pandda run, overall: Hit [1, 16]: TRUE
Pandda run, overall: Modeled [1, 16]: TRUE
Total number of conformations [1]: 1
2*(1-BDC) (%) [1, 17]: 14%
Binding site [1, 11]: Adenosine
Hill slope [2, 12]: 1.5
Hill slope ([2]; HTRF dose-response fit, Mac1): 1.5
inhibition at 200 µM [2, 13]: 23%
inhibition at 200 µM [2, 6]: 23%

CN(C)CC(CO)Nc1ncnc2[nH]ccc12 (centres unmarked) [AVI-3671]
1-BDC [1]: 0.17
X-ray crystal structure ([1]; X-ray crystal structure determined (TRUE)): TRUE
Pandda run, overall: Hit [1, 3]: TRUE
Pandda run, overall: Modeled [1, 3]: TRUE
PanDDA run, DMSO background map: 1-BDC ([1]; crystal soak 10 mM): 0.17
PanDDA run, DMSO background map: Hit ([1]; crystal soak 10 mM): TRUE
Total number of conformations [1]: 1
2*(1-BDC) (%) [1, 4]: 34%
Binding site ([1]; site of ligand in X-ray crystal structure): Adenosine
% competition in HTRF assay ([2]; preliminary screen, compound at 200 μM, mean of 3-4 technical replicates): neither had detectable binding

CC1CCC(O)(CNc2ncnc3[nH]ccc23)CC1 (centres unmarked) [AVI-4312]
Occupancy difference (refined_occupancy - 2*(1-BDC)) [1]: 0
Refined ligand occupancy (%) [1]: 44%
PanDDA run, DMSO background map: 1-BDC ([1]; event 1): 0.22 and 0.3
1-BDC [1]: 0.22
Total number of conformations [1]: 1
2*(1-BDC) (%) [1, 17]: 44%
X-ray crystallography: Binding site [1]: Adenosine
Hill slope ([2]; HTRF dose-response fit, Mac1): 1.2
SARS CoV-2 macrodomain HTRF assay: Hillslope [2]: 1.2

OC[C@@H]1C[C@H](O)CN1c1ncnc2[nH]ccc12 [AVI-610]
1-BDC [1]: 0.21
Pandda run, overall: Modeled [1, 18]: TRUE
Pandda run, overall: Hit ([1]; crystal soak, soak concentration 10 mM, TRUE = ligand hit): TRUE
Total number of conformations [1]: 1
2*(1-BDC) (%) [1, 4]: 42%
X-ray crystallography: Binding site [1]: Adenosine
PanDDA run, DMSO background map: 1-BDC ([1]; soak concentration 10 mM): 0.34 and 0.31 and 0.21 and 0.26
PanDDA run, DMSO background map: Hit ([1]; soak concentration 10 mM): TRUE
Hill slope ([2]; HTRF dose-response fit, Mac1): 1.2
inhibition at 200 µM [2, 5]: 56%
SARS CoV-2 macrodomain HTRF assay: Hillslope [2]: 1.2
inhibition at 200 µM [2, 6]: 56%

O=C(O)C(c1ccccc1)n1sc2ccccc2c1=O (centres unmarked) [AVI-288]
Occupancy difference (refined_occupancy - 2*(1-BDC)) [1]: 0
Refined ligand occupancy (%) [1]: 74%
1-BDC [1]: 0.37
X-ray crystal structure [1, 7]: TRUE
PanDDA run, DMSO background map: Hit [1, 14]: TRUE
PanDDA run, DMSO background map: Modeled [1, 14]: TRUE
PanDDA run, DMSO background map: 1-BDC [1, 15]: 0.37
Pandda run, overall: Hit [1, 16]: TRUE
Pandda run, overall: Modeled [1, 16]: TRUE
Pandda run, overall: Modeling comment [1, 18]: Duplicate, not modeled
Pandda run, overall: Hit [1, 19]: TRUE
PanDDA run, DMSO background map: Hit [1, 18]: TRUE
PanDDA run, DMSO background map: 1-BDC [1, 20]: 0.26
Total number of conformations [1]: 1
2*(1-BDC) (%) [1, 17]: 74%
Binding site [1, 11]: Adenosine
IC50 ([2]; Dose-response, SARS CoV-2 macrodomain HTRF assay, read-out: IC50): > 1 mM
inhibition at 200 µM [2, 13]: 21%
inhibition at 200 µM [2, 6]: 21%

Cc1c[nH]c2ncnc(NCC3(O)CCC(O)CC3)c12 (centres unmarked) [AVI-4329]
Occupancy difference (refined_occupancy - 2*(1-BDC)) [1]: 12
Refined ligand occupancy (%) [1]: 30%
1-BDC [1]: 0.09
PanDDA run, DMSO background map: 1-BDC [1, 8]: 0.09 and 0.11
Pandda run, overall: Hit [1, 9]: TRUE
Pandda run, overall: Modeled [1, 9]: TRUE
Pandda run, overall: Modeling comment [1, 9]: Duplicate, not modeled
PanDDA run, DMSO background map: Hit [1, 10]: TRUE
PanDDA run, DMSO background map: Modeled [1, 10]: TRUE
Total number of conformations [1]: 2
2*(1-BDC) (%) [1, 17]: 18%
X-ray crystallography: Binding site [1]: Adenosine
IC50 [2, 21]: > 1 mM

C[C@@H]1CCN(c2ncnc3[nH]ccc23)[C@H](CO)C1 (racemic) [AVI-4064]
Occupancy difference (refined_occupancy - 2*(1-BDC)) [1]: 0
Refined ligand occupancy (%) [1]: 38%
1-BDC [1]: 0.19
Hit (PanDDA run, overall) [1, 3]: TRUE
Hit (PanDDA run, DMSO background map) ([1]; crystal soak 10 mM): TRUE
1-BDC (PanDDA run, DMSO background map) ([1]; crystal soak 10 mM, event 1): 0.19
Total number of conformations [1]: 2
2*(1-BDC) (%) [1, 17]: 38%
X-ray crystallography: Binding site [1]: Adenosine
Hill slope ([2]; HTRF dose-response fit, Mac1): 1.2
SARS CoV-2 macrodomain HTRF assay: Hillslope [2]: 1.2

Cc1c[nH]c2ncnc(NCC3(O)CCC(C)(C)CC3)c12 [AVI-4330]
PanDDA run, DMSO background map: 1-BDC [1, 8]: 0.11
Pandda run, overall: Hit [1, 9]: TRUE
Pandda run, overall: Modeling comment [1, 9]: Weak density, not modeled
PanDDA run, DMSO background map: Hit [1, 10]: TRUE
Hill slope ([2]; HTRF dose-response fit, Mac1): 1.3
SARS CoV-2 macrodomain HTRF assay: Hillslope [2]: 1.3

Nc1nnc(SCCn2c(=O)oc3ccccc32)s1 [AVI-296]
1-BDC [1]: 0.06
X-ray crystal structure [1, 7]: TRUE
Pandda run, overall: Hit [1, 19]: TRUE
PanDDA run, DMSO background map: Hit [1, 18]: TRUE
PanDDA run, DMSO background map: Modeled [1, 18]: TRUE
PanDDA run, DMSO background map: 1-BDC [1, 20]: 0.06
Pandda run, overall: Modeled ([1]; crystal soak, soak concentration 10 mM, TRUE = ligand modeled): TRUE
Total number of conformations [1]: 1
2*(1-BDC) (%) [1, 4]: 12%
Binding site [1, 11]: Distal
Average % competition ([2]; Single dose, 200 μM, mean of three technical replicates): 7%

CC(C)(C)C1CCCN1c1ncnc2[nH]ccc12 (centres unmarked) [AVI-6000]
Occupancy difference (refined_occupancy - 2*(1-BDC)) [1]: 0
Refined ligand occupancy (%) [1]: 14%
PanDDA run, DMSO background map: 1-BDC ([1]; event 1): 0.07
1-BDC [1]: 0.07
Total number of conformations [1]: 1
2*(1-BDC) (%) [1, 17]: 14%
X-ray crystallography: Binding site [1]: Adenosine
IC50 [2, 21]: > 1 mM

OC1(CNc2ncnc3[nH]ccc23)CCC(F)(F)CC1 [AVI-4308]
Occupancy difference (refined_occupancy - 2*(1-BDC)) [1]: 0
Refined ligand occupancy (%) [1]: 30%
PanDDA run, DMSO background map: 1-BDC ([1]; event 1): 0.16
1-BDC [1]: 0.15
Hit (PanDDA run, overall) [1, 3]: TRUE
Hit (PanDDA run, DMSO background map) ([1]; crystal soak 10 mM): TRUE
1-BDC (PanDDA run, DMSO background map) ([1]; crystal soak 10 mM, event 1): 0.15
Total number of conformations [1]: 1
2*(1-BDC) (%) [1, 17]: 30%
X-ray crystallography: Binding site [1]: Adenosine
Hill slope ([2]; HTRF dose-response fit, Mac1): 1.2
SARS CoV-2 macrodomain HTRF assay: Hillslope [2]: 1.2
